US20240050428A1 (Cullgen (Shanghai), Inc., priority 2020, published 2024)
Where two headings read alike, the source gives them in different places.

Key:
MV4;11 cells = assay: Cell viability assay (CellTiter-Glo) in MV4;11 cells, alone or with gilteritinib; format: cell-based; details: Homo sapiens, MV4-11, 72 h, MV4;11 cells, three days, CellTiter-Glo, read-out: MV4
MOLM-13 cells = assay: Cell viability assay (CellTiter-Glo) in MOLM-13 cells, alone or with gilteritinib; format: cell-based; details: Homo sapiens, MOLM-13, 72 h, MOLM-13 cells, three days, CellTiter-Glo
[1] = compound alone (without gilteritinib), 11 IC50
[2] = compound with gilteritinib 10 nM, 11 IC50 gilteritinib
[3] = compound alone (without gilteritinib), read-out: MOLM-13 IC50
[4] = compound with gilteritinib 20 nM, read-out: MOLM-13 IC50 gilteritinib

| SMILES | IC50 (MV4;11 cells; [1]) | IC50 (MV4;11 cells; [2]) | IC50 (MOLM-13 cells; [3]) | IC50 (MOLM-13 cells; [4]) |
| --- | --- | --- | --- | --- |
| CN(C)c1ccnc(-c2cn([C@H]3C[C@H](CNc4ccc5c(c4)C(=O)N(C4CCC(=O)NC4=O)C5=O)C3)nc2C2CC2)c1 (stereo partly drawn) [GS-606, 5-(((trans-3-(3-Cyclopropyl-4-(4-(dimethylamino)pyridin-2-yl)-1H-pyrazol-1-yl)cyclobutyl)methyl)amino)-2-(2,6-dioxopiperidin-3-yl)isoindoline-1,3-dione] | > 1000 nM | > 1000 nM | > 1000 nM | > 1000 nM |
| O=C1CCC(N2C(=O)c3ccc(NC[C@H]4C[C@H](n5cc(-c6cc(N7CCNCC7)ccn6)c(C6CC6)n5)C4)cc3C2=O)C(=O)N1 (stereo partly drawn) [GS-607, 5-(((trans-3-(3-Cyclopropyl-4-(4-(piperazin-1-yl)pyridin-2-yl)-1H-pyrazol-1-yl)cyclobutyl)methyl)amino)-2-(2,6-dioxopiperidin-3-yl)isoindoline-1,3-dione] | > 1000 nM | > 1000 nM | > 1000 nM | > 1000 nM |
| CN1CCN(c2ccnc(-c3cn([C@H]4C[C@H](CNc5ccc6c(c5)C(=O)N(C5CCC(=O)NC5=O)C6=O)C4)nc3C3CC3)c2)CC1 (stereo partly drawn) [GS-608, 5-(((trans-3-(3-Cyclopropyl-4-(4-(4-methylpiperazin-1-yl)pyridin-2-yl)-1H-pyrazol-1-yl)cyclobutyl)methyl)amino)-2-(2,6-dioxopiperidin-3-yl)isoindoline-1,3-dione] | > 1000 nM | > 1000 nM | > 1000 nM | > 1000 nM |
| Cc1nc(-c2cn([C@H]3C[C@H](CNc4ccc5c(c4)C(=O)N(C4CCC(=O)NC4=O)C5=O)C3)nc2C2CC2)ccc1Cl (stereo partly drawn) [GS-609, 5-(((trans-3-(4-(5-Chloro-6-methylpyridin-2-yl)-3-cyclopropyl-1H-pyrazol-1-yl)cyclobutyl)methyl)amino)-2-(2,6-dioxopiperidin-3-yl)isoindoline-1,3-dione] | 10 to 100 nM | < 10 nM | 10 to 100 nM | < 10 nM |
| O=C1CCC(N2C(=O)c3ccc(NC[C@H]4C[C@H](n5cc(-c6cnc7c(N8CC(O)C8)cccc7n6)c(C6CC6)n5)C4)cc3C2=O)C(=O)N1 (some centres unmarked) [GS-610] | < 10 nM | < 10 nM | < 10 nM | < 10 nM |
| Cn1ncc2c(-c3cn([C@H]4C[C@H](CNc5ccc6c(c5)C(=O)N(C5CCC(=O)NC5=O)C6=O)C4)nc3C3CC3)nccc21 (stereo partly drawn) [GS-611, 5-(((trans-3-(3-Cyclopropyl-4-(1-methyl-1H-pyrazolo[4,3-c]pyridin-4-yl)-1H-pyrazol-1-yl)cyclobutyl)methyl)amino)-2-(2,6-dioxopiperidin-3-yl)isoindoline-1,3-dione] | < 10 nM | < 10 nM | < 10 nM | < 10 nM |
| CC(C)n1ncc2c(-c3cn([C@H]4C[C@H](CNc5ccc6c(c5)C(=O)N(C5CCC(=O)NC5=O)C6=O)C4)nc3C3CC3)nccc21 (stereo partly drawn) [GS-612, 5-(((trans-3-(3-Cyclopropyl-4-(1-isopropyl-1H-pyrazolo[4,3-c]pyridin-4-yl)-1H-pyrazol-1-yl)cyclobutyl)methyl)amino)-2-(2,6-dioxopiperidin-3-yl)isoindoline-1,3-dione] | < 10 nM | < 10 nM | < 10 nM | < 10 nM |
| Cn1ncc2cnc(-c3cn([C@H]4C[C@H](CNc5ccc6c(c5)C(=O)N(C5CCC(=O)NC5=O)C6=O)C4)nc3C3CC3)cc21 (stereo partly drawn) [GS-613, 5-(((trans-3-(3-Cyclopropyl-4-(1-methyl-1H-pyrazolo[4,3-c]pyridin-6-yl)-1H-pyrazol-1-yl)cyclobutyl)methyl)amino)-2-(2,6-dioxopiperidin-3-yl)isoindoline-1,3-dione] | < 10 nM | < 10 nM | 10 to 100 nM | < 10 nM |
| CC(C)n1ncc2cnc(-c3cn([C@H]4C[C@H](CNc5ccc6c(c5)C(=O)N(C5CCC(=O)NC5=O)C6=O)C4)nc3C3CC3)cc21 (stereo partly drawn) [GS-614, 5-(((trans-3-(3-Cyclopropyl-4-(1-isopropyl-1H-pyrazolo[4,3-c]pyridin-6-yl)-1H-pyrazol-1-yl)cyclobutyl)methyl)amino)-2-(2,6-dioxopiperidin-3-yl)isoindoline-1,3-dione] | < 10 nM | < 10 nM | 10 to 100 nM | < 10 nM |
| Cn1ccc2c(-c3cn([C@H]4C[C@H](CNc5ccc6c(c5)C(=O)N(C5CCC(=O)NC5=O)C6=O)C4)nc3C3CC3)nccc21 (stereo partly drawn) [GS-615, 5-(((trans-3-(3-Cyclopropyl-4-(1-methyl-1H-pyrrolo[3,2-c]pyridin-4-yl)-1H-pyrazol-1-yl)cyclobutyl)methyl)amino)-2-(2,6-dioxopiperidin-3-yl)isoindoline-1,3-dione] | 10 to 100 nM | < 10 nM | 10 to 100 nM | < 10 nM |
| O=C1CCC(N2C(=O)c3ccc(NC[C@H]4C[C@H](n5cc(-c6ccc7c(n6)CCC7)c(C6CC6)n5)C4)cc3C2=O)C(=O)N1 (stereo partly drawn) [GS-616, 5-(((trans-3-(3-Cyclopropyl-4-(6,7-dihydro-5H-cyclopenta[b]pyridin-2-yl)-1H-pyrazol-1-yl)cyclobutyl)methyl)amino)-2-(2,6-dioxopiperidin-3-yl)isoindoline-1,3-dione] | 10 to 100 nM | < 10 nM | 10 to 100 nM | < 10 nM |
| CN1CCC(Nc2cccnc2-c2cn([C@H]3C[C@H](CNc4ccc5c(c4)C(=O)N(C4CCC(=O)NC4=O)C5=O)C3)nc2C2CC2)CC1 (stereo partly drawn) [GS-617, 5-(((trans-3-(3-Cyclopropyl-4-(3-((1-methylpiperidin-4-yl)amino)pyridin-2-yl)-1H-pyrazol-1-yl)cyclobutyl)methyl)amino)-2-(2,6-dioxopiperidin-3-yl)isoindoline-1,3-dione] | > 1000 nM | > 1000 nM | > 1000 nM | > 1000 nM |
| Cn1ccc2cnc(-c3cn([C@H]4C[C@H](CNc5ccc6c(c5)C(=O)N(C5CCC(=O)NC5=O)C6=O)C4)nc3C3CC3)cc21 (stereo partly drawn) [GS-618, 5-(((trans-3-(3-Cyclopropyl-4-(1-methyl-1H-pyrrolo[3,2-c]pyridin-6-yl)-1H-pyrazol-1-yl)cyclobutyl)methyl)amino)-2-(2,6-dioxopiperidin-3-yl)isoindoline-1,3-dione] | < 10 nM | < 10 nM | 10 to 100 nM | < 10 nM |
| CN1CC(c2cccc(-c3cn([C@H]4C[C@H](CNc5ccc6c(c5)C(=O)N(C5CCC(=O)NC5=O)C6=O)C4)nc3C3CC3)n2)C1 (stereo partly drawn) [GS-619, 5-(((trans-3-(3-Cyclopropyl-4-(6-(1-methylazetidin-3-yl)pyridin-2-yl)-1H-pyrazol-1-yl)cyclobutyl)methyl)amino)-2-(2,6-dioxopiperidin-3-yl)isoindoline-1,3-dione] | > 1000 nM | > 1000 nM | > 1000 nM | > 1000 nM |
| CNc1cccnc1-c1cn([C@H]2C[C@H](CNc3ccc4c(c3)C(=O)N(C3CCC(=O)NC3=O)C4=O)C2)nc1C1CC1 (stereo partly drawn) [GS-620, 5-(((trans-3-(3-Cyclopropyl-4-(3-(methylamino)pyridin-2-yl)-1H-pyrazol-1-yl)cyclobutyl)methyl)amino)-2-(2,6-dioxopiperidin-3-yl)isoindoline-1,3-dione] | 10 to 100 nM | < 10 nM | 100 to 1000 nM | < 10 nM |
| CN(C)c1cccnc1-c1cn([C@H]2C[C@H](CNc3ccc4c(c3)C(=O)N(C3CCC(=O)NC3=O)C4=O)C2)nc1C1CC1 (stereo partly drawn) [GS-621, 5-(((trans-3-(3-Cyclopropyl-4-(3-(dimethylamino)pyridin-2-yl)-1H-pyrazol-1-yl)cyclobutyl)methyl)amino)-2-(2,6-dioxopiperidin-3-yl)isoindoline-1,3-dione] | 10 to 100 nM | < 10 nM | 10 to 100 nM | < 10 nM |
| CC(C)n1ccc2cnc(-c3cn([C@H]4C[C@H](CNc5ccc6c(c5)C(=O)N(C5CCC(=O)NC5=O)C6=O)C4)nc3C3CC3)cc21 (stereo partly drawn) [GS-622, 5-(((trans-3-(3-Cyclopropyl-4-(1-isopropyl-1H-pyrrolo[3,2-c]pyridin-6-yl)-1H-pyrazol-1-yl)cyclobutyl)methyl)amino)-2-(2,6-dioxopiperidin-3-yl)isoindoline-1,3-dione] | 10 to 100 nM | < 10 nM | 10 to 100 nM | < 10 nM |
| CC(C)n1ccc2c(-c3cn([C@H]4C[C@H](CNc5ccc6c(c5)C(=O)N(C5CCC(=O)NC5=O)C6=O)C4)nc3C3CC3)nccc21 (stereo partly drawn) [GS-623, 5-(((trans-3-(3-Cyclopropyl-4-(1-isopropyl-1H-pyrrolo[3,2-c]pyridin-4-yl)-1H-pyrazol-1-yl)cyclobutyl)methyl)amino)-2-(2,6-dioxopiperidin-3-yl)isoindoline-1,3-dione] | 10 to 100 nM | < 10 nM | 10 to 100 nM | < 10 nM |
| O=C1CCC(N2C(=O)c3ccc(NC[C@H]4C[C@H](n5cc(-c6cnc7c(C8CNC8)cccc7n6)c(C6CC6)n5)C4)cc3C2=O)C(=O)N1 (stereo partly drawn) [GS-624, 5-(((trans-3-(4-(5-(Azetidin-3-yl)quinoxalin-2-yl)-3-cyclopropyl-1H-pyrazol-1-yl)cyclobutyl)methyl)amino)-2-(2,6-dioxopiperidin-3-yl)isoindoline-1,3-dione] | 100 to 1000 nM | 10 to 100 nM | > 1000 nM | 10 to 100 nM |
| O=C1CCC(N2C(=O)c3ccc(NCCC[C@H]4C[C@H](n5cc(-c6nccc7cccnc67)c(C6CC6)n5)C4)cc3C2=O)C(=O)N1 (stereo partly drawn) [GS-625, 5-((3-(trans-3-(3-Cyclopropyl-4-(1,7-naphthyridin-8-yl)-1H-pyrazol-1-yl)cyclobutyl)propyl)amino)-2-(2,6-dioxopiperidin-3-yl)isoindoline-1,3-dione] | 10 to 100 nM | < 10 nM | 100 to 1000 nM | 10 to 100 nM |
